Publication PMC8070447, “Facile Synthesis and In Vitro Activity of N-Substituted 1,2-Benzisothiazol-3(2H)-ones against Dengue Virus NS2BNS3 Protease” (Pathogens, 2021)
“Also recorded” adds a separate entry of the source. Like-named read-outs stand apart in the source and are kept apart here.

Columns and labels:
[1] = molecular target: recombinant DENV2 NS2BNS3 protease (Dengue virus type 2, UniProt P29990); test: DENV2 NS2BNS3 protease inhibition assay (fluorogenic Bz-Nle-Lys-Arg-Arg-AMC substrate); format: biochemical; conditions: for inhibition at 50 µM: single dose 50 μM BIT, 100 nM protease
Chain of recombinant DENV2 NS2BNS3 protease (P29990 1398-1437): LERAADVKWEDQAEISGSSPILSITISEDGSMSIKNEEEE
Chain of recombinant DENV2 NS2BNS3 protease (P29990 1476-1653): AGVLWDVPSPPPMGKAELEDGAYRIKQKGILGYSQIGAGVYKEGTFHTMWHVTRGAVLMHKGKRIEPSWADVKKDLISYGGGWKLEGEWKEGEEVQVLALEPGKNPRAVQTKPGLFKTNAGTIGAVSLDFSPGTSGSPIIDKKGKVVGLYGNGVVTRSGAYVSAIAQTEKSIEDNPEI
Description: The DENV NS2BNS3 activity inhibition assays were conducted in a 96-well plate containing 100 μL total reaction mixture. […] The reaction, in triplicates, was initiated by the addition of 100 nM DENV2 NS2B-NS3, and the release of fluorogenic AMC was measured at 60 s intervals using a spectrofluorometer for a maximum reaction time of 30 min. A solvent (DMSO) control was run for each assay plate by measuring the activity of DENV NS2BNS3 in the absence of BITs (DMSO control). The effect of background fluorescence was measured by preparing a calibration curve, which in turn was obtained by spiking known concentrations of free AMC in the same volume of the reaction mixtures containing the buffer, enzyme and compounds, and comparing the slope of this curve with that obtained using free AMC concentrations in reaction mixtures containing the buffer, enzyme, no compound and no substrate. The percentage of inhibition was calculated using the measurement of the initial rates of reaction in the presence (vexp) , or absence (vpro) of BIT according to the following formula: Inhibition (%)= 100−(vexp/vpro×100).
For the dose–response experiments, the assays were conducted as described above in the presence of threefold serial dilutions of BITs, ranging from 0.076–500 μM concentrations in DMSO. The final concentration of DMSO in each reaction mixture was less than 5%. IC50 values were obtained by plotting the residual activity of the DENV protease vs. log of the concentration of BITs by using GraphPad Prism v.7 software (San Diego, CA USA). For the positive control, aprotinin was used in a 5 μM concentration. All experiments were conducted in triplicates.
The synthesised BITs were tested for their inhibitory activity against the DENV2 NS2B/NS3 protease assay using the previously reported 96-well plate method. […] A reduction in the cleavage of the […] (AMC) measured in terms of the reduction of fluorescence was deemed to show inhibition of the protease and is reported as a percentage inhibition compared with the solvents’ control reaction. […] Aprotinine was used as the positive control, as described previously.
A threefold serial dilution of the selected BITs, ranging from 150 μM to about 200 nM, were screened in triplicate experiments, as described above. The kinetic data were obtained and the protease’s residual activities in the presence of the tested BITs were inserted into the dose–response model rooted in the GraphPad Prism software (version 7.0).
Figure 3 Inhibition and dose–response of DENV NS2BNS3 protease against the BITs. (A) A concentration of 50 μM BITs was incubated in the presence of 100 nM recombinant DENV2 NS2BNS3 protease and 5 µM tetrapeptide-AMC substrate in a Tris buffer at pH 9.5. The time-dependent release of fluorescent AMC tag was measured for 30 min and compared with the solvent control (−). […] Aprotinine (5 µM) was used as a positive control. Each bar represents a mean value of three replicates. […] The dashed horizontal line indicates the 50% activity level.

DENV2 [2] = test: DENV replication assay, viral RNA in supernatant by RT-qPCR; format: cell-based, DENV2 in Vero cells; conditions: 30 μM, Vero cells pre-incubated 1 h, supernatant after two days
Description: Based on the manufacturer’s manual, viral RNA was isolated from 200 µL cell culture supernatants using the Roche HP Viral Nucleic Acid Kit (Roche, Mannheim, Germany). Relative viral genome copy numbers were determined using 5 µL of the eluted RNA and RT-qPCR using the LightMix® Modular Dengue kit (TIB MOLBIOL, Germany) in combination with the LightCycler RNA Process Control Kit (Roche, Mannheim, Germany). All reactions were performed in triplicates on Roche LightCycler96 or Roche LightCycler480 II qPCR machines (Roche, Mannheim, Germany). The relative RNA concentration was determined using an RNA standard curve and the respective cycler software. The quality of the RT-qPCRs was ensured by following the Minimum Information for Publication of Quantitative […] Experiments guidelines, i.e., the recursion coefficient of the relative standard curve (r^2) was >0.95, and the triplicate assays with a standard deviation of >0.5 were excluded from the analyses. The resulting genome copy numbers were expressed as genome copies per millilitre of the cell culture supernatants. The statistical significance of the reduction in viral titres was calculated using Student’s t-test by comparing the viral load of a single compound with the DMSO control.
The BITs were tested for cytotoxicity in the Vero cells before their evaluation in cell culture assays (Figure S1). […] The BITs showing weaker DENV2 NS2BNS3 protease activity in the biochemical assay were excluded in the in vitro evaluations. […] All infections were performed in triplicate. After two days, the cellular supernatants were collected and the viral RNAs were isolated and quantified using real-time quantitative polymerase chain reaction (RT-qPCR).
(§1) (A) Vero cells were infected with DENV2 and incubated in the presence of the compounds. After incubation, viral RNA was isolated and quantified using RT-qPCR. (B) Viral infectivity of the compounds 5m and 5n was determined using immunofluorescence (IF) staining.

DENV2 [3] = test: Viral infectivity by immunofluorescence staining of Vero cells infected with supernatants; format: cell-based, DENV2 in Vero cells
Description: The inhibition of viral replication was analysed using immunofluorescence staining. Vero cells were preincubated with selected BITs at 30 μM. The cells were subsequently infected with DENV-2 (multiplicity of infection (MOI) of 0.5). Cellular supernatants were collected after 2 days, centrifuged at 2000 rpm for 5 min to remove the detached cells, and titrated on Vero cells. These cells were fixed with 4% paraformaldehyde 3 days after infection. We performed immunofluorescence staining to visualise the infected cells with monoclonal anti-DENV-2 E antibodies. Bound antibodies were detected with a Cy3-conjugated donkey anti-mouse antibody (Dianova, Hamburg, Germany) (1:500). Stained infected cells were counted using a fluorescence microscope, and the viral titres were calculated. The experiment was performed in triplicates. The statistical significance of the reduction of infected cells was calculated using Student’s t-test by comparing numbers of infected cells incubated with a compound with the DMSO control.
To further analyse whether the compounds 5m and 5n suppressed the viral gene infectivity, Vero cells were pretreated with the compounds and subsequently infected with DENV2 for two days. Cellular supernatants were uses to infect the Vero cells. After two additional days, the infected cells were visualised using immunofluorescence with anti-DENV antibodies. The stained cells were counted (Figure 5).
as §1

[4] = Vero cells pretreated, DENV2, immunofluorescence

| SMILES | IC50 [1] [µM] | inhibition at 50 µM [1] [%] | melting point [°C] | suppression of DENV replication (viral RNA, RT-qPCR) (DENV2 [2]) | further results |
| --- | --- | --- | --- | --- | --- |
| O=c1c2ccccc2sn1-c1ccccc1[N+](=O)[O-] [Compound 5h, 2-(2-Nitrophenyl)benzo[d]isothiazol-3(2H)-one] | 41.8 ± 1.17 | ~70 | 199 to 200 | – | – |
| O=c1c2ccccc2sn1-c1ccccc1O [Compound 5l, 2-(2-Hydroxyphenyl)benzo[d]isothiazol-3(2H)-one] | 6.66 ± 2.17 | ≥ 90 | 198 to 200 | – | – |
| O=c1c2ccccc2sn1-c1ccc(Br)cc1 [Compound 5k, 2-(4-Bromophenyl)benzo[d]isothiazol-3(2H)] | 8.24 ± 1.16 | 80 | 138 to 140 | – | – |
| COc1ccc(-n2sc3ccccc3c2=O)cc1 [Compound 5o, 2-(4-Methoxyphenyl)benzo[d]isothiazol-3(2H)-one] | 26.5 ± 4.32 | 58 | – | – | – |
| CCCCc1ccc(-n2sc3ccccc3c2=O)cc1 [Compound 5g, 2-(4-Butylphenyl)benzo[d]isothiazol-3(2H)-one] | – | – | 168 to 172 | – | – |
| O=c1c2ccccc2sn1-c1ccccc1Cl [Compound 5m, 2-(2-Chlorophenyl)benzo[d]isothiazol-3(2H)-one] | 2.01 ± 0.98 | > 90 | – | able to suppress DENV replication at a significant level; also recorded: inhibited DENV replication | suppression of DENV replication (viral RNA, RT-qPCR) (DENV2 [2]; listed as 2-(2-chlorophenyl)benzo[d]isothiazol-3(2H)-one): could suppress DENV replication; reduction of viral infectivity (DENV2 [3]): 1 log value; reduction of viral infectivity (DENV2 [3]; [4]): 1.4 orders of magnitude; reduction of viral infectivity (in words) (DENV2 [3]; [4]): inhibited DENV replication and viral infectivity; reduction of viral infectivity (in words) (DENV2 [3]; Vero cells pretreated, DENV2, immunofluorescence, listed as 2-(2-chlorophenyl)benzo[d]isothiazol-3(2H)-one): could suppress DENV replication and virus infectivity |
| O=c1c2ccccc2sn1-c1ccc([N+](=O)[O-])cc1 [Compound 5i, 2-(4-Nitrophenyl)benzo[d]isothiazol-3(2H)-one] | – | – | 126 to 129 | – | – |
| Cc1cc([N+](=O)[O-])ccc1-n1sc2ccccc2c1=O [Compound 5j, 2-(2-Methyl-4-nitrophenyl)benzo[d]isothiazol-3(2H)-one] | 2.56 ± 1.03 | > 90 | 135 to 138 | did not show any activity against DENV2 | – |
| O=c1c2ccccc2sn1-c1c(Cl)cccc1Cl [Compound 5n, 2-(2,6-Dichlorophenyl)benzo[d]isothiazol-3(2H)-one] | 5.28 ± 1.89 | > 90 | 188 to 190 | able to suppress DENV replication at a significant level | suppression of DENV replication (viral RNA, RT-qPCR) (DENV2 [2]; listed as 2-(2,6-dichlorophenyl)benzo[d]isothiazol-3(2H)-one): could suppress DENV replication; reduction of viral infectivity (in words) (DENV2 [3]; [4]): about sixfold; reduction of viral infectivity (in words) (DENV2 [3]; Vero cells pretreated, DENV2, immunofluorescence, listed as 2-(2,6-dichlorophenyl)benzo[d]isothiazol-3(2H)-one): could suppress DENV replication and virus infectivity |
